The conditions of data set [1]: oral; cited from earlier work.
The conditions of data set [2]: topical 400 mg. How it is done: Cnidocysts were isolated from the filament acontia of Aiptasia diaphana based on their high density and high stability in salts as described previously (1, 2) (FIGS. 1A-C). Briefly, filaments were incubated in 1M sodium citrate, followed by two centrifugations in 70% percoll gradients. The isolated cnidocysts were washed with decreasing concentrations of NaCl (1M to 0.2M) and freeze-dried. The purified cnidocysts were kept dry until use, or formulated in an anhydrous gel consisting of 2% hydroxyl propyl cellulose in absolute ethanol.
The study included 3 dosing sessions as detailed in Table 3 below.

Where two headings read alike, the source gives them in different places.

On to `NCCCC(O)(P(=O)(O)O)P(=O)(O)O` [sodium alendronate], for which the “fraction absorbed when taken orally” value in data set [1] was 0.64%.
Turning to `CN1[C@@H]2CC[C@H]1C[C@@H](OC(=O)C(CO)c1ccccc1)C2` (mixture of isomers) [atropine, Atropine], the “Cumulative Value (CV) % of atropine concentrations, Topical” value in data set [2] (Time 0.17) is 43.6%; in data set [2] (Time 0.25) it was 76.9%; in data set [2] (Time 0.5) it was 42.5%; in data set [2] (Time 0.75), 148.9%; in data set [2] (Time 1) it was 103.7%; in data set [2] (Time 2), 98.9%. In addition, the “Cumulative Value (CV) % of atropine concentrations, Topical” value in data set [2] (Time 4) amounted to 113.2%; in data set [2] (Time 12), 96.4%; in data set [2] (Time 24) it was 144.3%.

These data come from patent US20150250714A1, “PHARMACEUTICAL COMPOSITIONS AND DELIVERY DEVICES COMPRISING STINGING CELLS OR CAPSULES” (NANOCYTE (ISRAEL) LTD., priority 2010, published 2015).
